Results reported in patent US20250206759A1, “FUSED RING COMPOUND, PHARMACEUTICAL COMPOSITION CONTAINING SAME, AND USE OF FUSED RING COMPOUND” (CHENGDU HYPERWAY PHARMACEUTICALS CO., LTD., priority 2022, published 2025).
Like-named read-outs stand apart in the source and are kept apart here.

How the values were obtained:
ASPC-1 cells = experiment: 3D cell proliferation inhibition test (CellTiter-Glo), ASPC-1 cells; assay type: cell-based; details: 7 days, read-out: ASPC-1 cells 3D CTG IC50
Experimental: (§1) The diluted compounds to be tested were added to 384-well low-adhesion cell culture plates by using a nanoliter pipetting system (LABCYTE, P-0200). Then, the cells were plated and incubated in a 37° C., […] incubator for 7 days. Afterward, CellTiter-Glo® […] reagent was added, and the luminescent values were read by an Envision multifunctional microplate reader (the luminescent signal is proportional to the amount of ATP in the system, and the ATP content directly represents the number of viable cells in the system). Finally, the IC50 values (half-maximal inhibitory concentration) of the compounds were obtained by the XLFIT software using the nonlinear fitting formula.
(§2) a) The diluted compounds to be tested were added to 384-well low-adsorption cell culture plates by using a nanoliter pipetting system.
(§3) b) Cells were seeded into the 384-well plates in a) and then centrifuged at 1000 rpm for 1 min at room temperature, with a final DMSO concentration of compound being 0.5%. The plates were then incubated in a 37° C., 5% CO2 constant temperature incubator for 7 days.
(§4) c) CellTiter-Glo® 3D was added to the 384-well cell culture plates in b), shaken in the dark, and incubated at room temperature.
(§5) d) The luminescence values were read by using an Envision multifunctional microplate reader.
(§6) The IC50 (half-maximal inhibitory concentration) values of the compounds were obtained by using XLFIT software according to the following nonlinear fitting formula:
(§7) [formula] • X: log value of compound concentration. • Y: inhibition rate (%)
(§8) Inhibition rate (%)=100×(average value of negative control−compound)/(average value of negative control−average value of positive control)
(§9) Positive control: Medium only.

[1] = system: KRas G12D-mediated ERK phosphorylation; experiment: Inhibition of KRas G12D-mediated ERK phosphorylation in AGS cells; assay type: cell-based; details: read-out: AGS-pERK IC50
Experimental: Day 1: AGS cells were seeded into 384-well cell culture plates and cultured overnight in a 37° C., 5% CO2 incubator.
Day 2: The compounds were added to the plates using Echo550 and incubated for 3 h in a 37° C., 5% CO2 incubator. Then cells were fixed with paraformaldehyde, permeated with methanol, and blocked with the blocking solution. Finally, a mixed solution of primary antibodies (rabbit anti pERK, mouse anti GAPDH) was added, and the mixture was incubated at 4° C. overnight.
Day 3: The mixed solution of primary antibodies was discarded, and a mixed solution of secondary antibodies (goat anti rabbit 800CW, goat anti mouse 680RD) was added. The mixture was incubated at room temperature in the dark. Finally, the cell culture plate was washed with PBST, and then inverted for 1 minute of centrifugation. The fluorescence signal values were read with Odyssey CLx.
ERK phosphorylation was calculated according to the following formula: […]
X: log value of compound concentration.
Y: average value of relative expression of p-ERK between replicate wells.

GP2d cells = experiment: 3D cell proliferation inhibition test (CellTiter-Glo), GP2d cells; assay type: cell-based; details: 7 days, read-out: GP2d cells 3D CTG IC50
Experimental: as §1, §2, §3, §4, §5, §6, §7, §8, §9

[2] = Pharmacokinetics of compounds in rats (oral); assay type: in vivo, SD rats; details: for AUC / Cmax: male SD rats
Outline: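 Male SD rats (3/group) dosed once by oral gavage with compound suspended in 5% DMSO+95% saline after 10–14 h fast. Jugular blood (sodium heparin) drawn predose and 15 min–24 h postdose; plasma separated on ice within 1 h and stored at −80° C before analysis.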

[3] = male, SD, rat, plasma, po, 100 mg/kg, 100 mg/kg, read-out: AUC
[4] = male, SD, rat, plasma, po, 100 mg/kg, 100 mg/kg, read-out: Cmax

| SMILES | IC50 ([1]; Homo sapiens, AGS) [nM] | AUC [2, 3] [ng·h/mL] | Cmax [2, 4] [ng/mL] | IC50 [1] [nM] | AUC ([2]; 100 mg/kg) [ng·h/mL] | Cmax ([2]; 100 mg/kg) [ng/mL] | also measured |
| --- | --- | --- | --- | --- | --- | --- | --- |
| Oc1cc(-c2ncc3c(N4CC5CCC(C4)N5)nc(OCC45CCCN4[C@@H](c4ccc(C(F)(F)F)c(F)c4)CC5)nc3c2F)c2c(F)c(F)ccc2c1 (mixture of isomers) [Example 225] | 1.5 | 380 | 54 | – | – | – | IC50 (ASPC-1 cells; Homo sapiens, ASPC1, 168 h): 11.1 nM; IC50 (GP2d cells; 168 h): 1.49 nM |
| Oc1cc(-c2ncc3c(N4CC5CCC(C4)N5)nc(OCC45CCCN4[C@@H](c4cc(F)c(F)c(F)c4)CC5)nc3c2F)c2c(F)c(F)ccc2c1 (single isomer, unassigned) [Example 223] | – | – | – | 0.74 | 404 | 260 | IC50 (ASPC-1 cells; Homo sapiens, ASPC1, 168 h): 3.09 nM; IC50 (GP2d cells; 168 h): 0.67 nM |
| Oc1cc(-c2ncc3c(N4C[C@H]5CC[C@@H](C4)N5)nc(OCC45CCCN4C(c4ccc6c(c4)OC(F)(F)O6)CC5)nc3c2F)c2c(F)c(F)ccc2c1 (stereo partly drawn) [Example 142, 4-(4-((1R,5S)-3,8-diazabicyclo[3.2.1]octan-3-yl)-2-((3-(2,2-difluorobenzo[d][1,3]dioxy-5-yl)tetrahydro-1H-pyrrolizin-7a(5H)-yl)methoxy)-8-fluoropyrido[4,3d]pyrimidin-7-yl)-5,6-difluoronaphthalen-2-ol] | – | – | – | 0.83 | 404 | 96 | IC50 (ASPC-1 cells): 13.9 nM; IC50 (GP2d cells): 1.15 nM |
| CC1(C)OCc2cc(C3CCC4(COc5nc(N6C[C@H]7CC[C@@H](C6)N7)c6cnc(-c7cc(O)cc8ccc(F)c(F)c78)c(F)c6n5)CCCN34)ccc21 (stereo partly drawn) [Example 146, 4-(4-((1R,5S)-3,8-diazabicyclo[3.2.1]octan-3-yl)-2-((3-(1,1-dimethyl-1,3-dihydroisobenzofuran-5-yl)tetrahydro-1H-pyrrolizin-7a(5H)-yl)methoxy)-8-fluoropyrido[4,3-d]pyrimidin-7-yl)-5,6-difluoronaphthalen-2-ol] | 11 | 483 | 143 | – | – | – | – |
| CC1(C)OC(C)(C)c2cc(C3CCC4(COc5nc(N6C[C@H]7CC[C@@H](C6)N7)c6cnc(-c7cc(O)cc8ccccc78)c(F)c6n5)CCCN34)ccc21 (stereo partly drawn) [Example 149, 4-(4-((1R,5S)-3,8-diazabicyclo[3.2.1]octan-3-yl)-8-fluoro-2-((3-(1,1,3,3-tetramethyl-1,3-dihydroisobenzofuran-5-yl)tetrahydro-1H-pyrrolizin-7a(5H)-yl)methoxy)pyrido[4,3d]pyrimidin-7-yl)naphthalen-2-ol] | – | – | – | 23 | 1192 | 148 | – |
| Oc1cc(-c2ncc3c(N4C[C@H]5CC[C@@H](C4)N5)nc(OCC45CCCN4C(c4ccc6c(c4)C4CCC6O4)CC5)nc3c2F)c2c(F)c(F)ccc2c1 (stereo partly drawn) [Example 153, 4-(4-((1R,5S)-3,8-diazabicyclo[3.2.1]octan-3-yl)-8-fluoro-2-((3-(1,2,3,4-tetrahydro-1,4-epoxynaphthalen-6-yl)tetrahydro-1H-pyrrolizin-7a(5H)-yl)methoxy)pyrido[4,3d]pyrimidin-7-yl)-5,6-difluoronaphthalen-2-ol] | – | – | – | 5.2 | 458 | 156 | – |
| CC1(C)OCc2ccc(C3CCC4(COc5nc(N6CC7CCC(C6)N7)c6cnc(-c7cc(O)cc8ccc(F)c(F)c78)c(F)c6n5)CCCN34)cc21 [Example 156, 4-(4-((1R,5S)-3,8-diazabicyclo[3.2.1]octan-3-yl)-2-((3-(3,3-dimethyl-1,3-dihydroisobenzofuran-5-yl)tetrahydro-1H-pyrrolizin-7a(5H)-yl)methoxy)-8-fluoropyridin[4,3-d]pyrimidin-7-yl)-5,6-difluoronaphthalen-2-ol] | 15 | 598 | 138 | – | – | – | – |
| Nc1cc(Cl)c(C(F)(F)F)c(-c2ncc3c(N4C[C@H]5CC[C@@H](C4)N5)nc(OCC45CCCN4C(c4ccc6c(c4)OC(F)(F)O6)CC5)nc3c2F)c1 (stereo partly drawn) [Example 161, 3-(4-((1R,5S)-3,8-diazabicyclo[3.2.1]octan-3-yl)-2-((3-(2,2-difluorobenzo[d][1,3]dioxy-5-yl)tetrahydro-1H-pyrrolizin-7a(5H)-yl)methoxy)-8-fluoropyridin[4,3-d]pyrimidin-7-yl)-5-chloro-4-(trifluoromethyl) aniline] | – | – | – | – | 1080 | 193 | IC50 (ASPC-1 cells): 46.9 nM; IC50 (GP2d cells): 10.9 nM |
| Oc1cc(-c2ncc3c(N4CC5CCC(C4)N5)nc(OCC45CCCN4C(c4ccc6c(c4)COCC6)CC5)nc3c2F)c2c(F)c(F)ccc2c1 (centres unmarked) [Example 187] | 13 | 567 | 109 | – | – | – | – |
| C#Cc1c(F)ccc2cc(O)cc(-c3ncc4c(N5CC6CCC(C5)N6)nc(OCC56CCCN5C(c5ccc(F)cc5)CC6)nc4c3F)c12 (centres unmarked) [Example 188] | 5.2 | 862 | 149 | – | – | – | – |
| C#Cc1c(F)ccc2cc(O)cc(-c3ncc4c(N5CC6CCC(C5)N6)nc(OCC56CCCN5C(c5ccc7c(c5)C5CCC7O5)CC6)nc4c3F)c12 (centres unmarked) [Example 192] | 1.8 | 284 | 96 | – | – | – | IC50 (ASPC-1 cells; Homo sapiens, ASPC1, 168 h): 12.2 nM; IC50 (GP2d cells; 168 h): 3.51 nM |
| Oc1cc(-c2ncc3c(N4CC5CCC(C4)N5)nc(OCC45CCCN4C(c4ccc(Cl)c(C(F)(F)F)c4)CC5)nc3c2F)c2c(F)c(F)ccc2c1 (centres unmarked) [Example 227] | 2.4 | 245 | 52 | – | – | – | – |
| C#Cc1c(F)ccc2cc(O)cc(-c3ncc4c(N5CC6CCC(C5)N6)nc(OC[C@@]56CCCN5C[C@H](F)C6)nc4c3F)c12 [MRTX1133, reference compound] | – | – | – | 1.2 | 70 | 26 | IC50 (ASPC-1 cells): 10.9 nM; IC50 (GP2d cells): 1.38 nM; oral pharmacokinetics (Cmax and AUC) ([2]; SD rats): extremely poor; AUC ([2]; 10 mg/kg): No parameter; Cmax ([2]; 10 mg/kg): 1 to 2 ng/mL |
